Laboratory results as given in ChEMBL document CHEMBL3045511, “Effects of Two Isoflavonoids, Osajin and Pomiferin, from Maclura pomifera for Growth and Feeding Disruption in Ostrinia nubilalis” (2001).

Columns and labels:
Assay type in all cases: functional
Ostrinia nubilalis [1] = assay: Antifeedant activity against Ostrinia nubilalis (European corn borer) larvae assessed as amount of weight gain by the insect at 0.20% of diet dry weight after 5 days relative to control
Ostrinia nubilalis [2] = assay: Insecticidal activity against Ostrinia nubilalis (European corn borer) larvae assessed as mortality at 0.10 to 0.80% of diet dry weight after 5 days relative to control
Ostrinia nubilalis [3] = assay: Effect on growth of male Ostrinia nubilalis (European corn borer) larvae assessed as pupal weight at 0.10% of diet dry weight after 6 days relative to control
Ostrinia nubilalis [4] = assay: Effect on growth of male Ostrinia nubilalis (European corn borer) larvae assessed as adult emergence at 0.001% of diet dry weight after 6 days relative to control
Ostrinia nubilalis [5] = assay: Antifeedant activity against Ostrinia nubilalis (European corn borer) larvae assessed as feeding rate at 0.60% of diet dry weight after 5 days relative to control
Ostrinia nubilalis [6] = assay: Effect on growth of female Ostrinia nubilalis (European corn borer) larvae assessed as pupal weight at 0.001% of diet dry weight after 6 days relative to control
Ostrinia nubilalis [7] = assay: Antifeedant activity against Ostrinia nubilalis (European corn borer) larvae assessed as growth rate at 0.80% of diet dry weight after 5 days relative to control
Ostrinia nubilalis [8] = assay: Effect on growth of female Ostrinia nubilalis (European corn borer) larvae assessed as adult emergence at 1% of diet dry weight after 6 days relative to control
Ostrinia nubilalis [9] = assay: Effect on growth of female Ostrinia nubilalis (European corn borer) larvae assessed as pupal weight at 0.01% of diet dry weight after 6 days relative to control
Ostrinia nubilalis [10] = assay: Antifeedant activity against Ostrinia nubilalis (European corn borer) larvae assessed as amount of food consumed at 0.60% of diet dry weight after 5 days relative to control
Ostrinia nubilalis [11] = assay: Antifeedant activity against Ostrinia nubilalis (European corn borer) larvae assessed as amount excreted at 0.20% of diet dry weight after 5 days relative to control
Ostrinia nubilalis [12] = assay: Effect on growth of male Ostrinia nubilalis (European corn borer) larvae assessed as pupal duration at 0.10% of diet dry weight after 6 days relative to control
Ostrinia nubilalis [13] = assay: Effect on growth of male Ostrinia nubilalis (European corn borer) larvae assessed as larval duration at 0.01% of diet dry weight after 6 days relative to control
Ostrinia nubilalis [14] = assay: Antifeedant activity against Ostrinia nubilalis (European corn borer) larvae assessed as excretion rate at 0.40% of diet dry weight after 5 days relative to control
Ostrinia nubilalis [15] = assay: Effect on growth of female Ostrinia nubilalis (European corn borer) larvae assessed as adult emergence at 0.10% of diet dry weight after 6 days relative to control
Ostrinia nubilalis [16] = assay: Antifeedant activity against Ostrinia nubilalis (European corn borer) larvae assessed as amount of food consumed at 0.40% of diet dry weight after 5 days relative to control
Ostrinia nubilalis [17] = assay: Antifeedant activity against Ostrinia nubilalis (European corn borer) larvae assessed as excretion rate at 0.10% of diet dry weight after 5 days relative to control
Ostrinia nubilalis [18] = assay: Antifeedant activity against Ostrinia nubilalis (European corn borer) larvae assessed as growth rate at 0.10% of diet dry weight after 5 days relative to control
Ostrinia nubilalis [19] = assay: Effect on growth of female Ostrinia nubilalis (European corn borer) larvae assessed as larval duration at 0.001% of diet dry weight after 6 days relative to control
Ostrinia nubilalis [20] = assay: Antifeedant activity against Ostrinia nubilalis (European corn borer) larvae assessed as amount of food consumed at 0.80% of diet dry weight after 5 days relative to control
Ostrinia nubilalis [21] = assay: Effect on growth of male Ostrinia nubilalis (European corn borer) larvae assessed as pupal duration at 0.001% of diet dry weight after 6 days relative to control
Ostrinia nubilalis [22] = assay: Antifeedant activity against Ostrinia nubilalis (European corn borer) larvae assessed as amount of weight gain by the insect at 0.10% of diet dry weight after 5 days relative to control
Ostrinia nubilalis [23] = assay: Effect on growth of female Ostrinia nubilalis (European corn borer) larvae assessed as pupal duration at 1% of diet dry weight after 6 days relative to control
Ostrinia nubilalis [24] = assay: Effect on growth of female Ostrinia nubilalis (European corn borer) larvae assessed as larval duration at 1% of diet dry weight after 6 days relative to control
Ostrinia nubilalis [25] = assay: Antifeedant activity against Ostrinia nubilalis (European corn borer) larvae assessed as excretion rate at 0.60% of diet dry weight after 5 days relative to control
Ostrinia nubilalis [26] = assay: Effect on growth of female Ostrinia nubilalis (European corn borer) larvae assessed as larval duration at 0.10% of diet dry weight after 6 days relative to control
Ostrinia nubilalis [27] = assay: Antifeedant activity against Ostrinia nubilalis (European corn borer) larvae assessed as growth rate at 0.40% of diet dry weight after 5 days relative to control
Ostrinia nubilalis [28] = assay: Antifeedant activity against Ostrinia nubilalis (European corn borer) larvae assessed as amount of food consumed at 0.10% of diet dry weight after 5 days relative to control
Ostrinia nubilalis [29] = assay: Antifeedant activity against Ostrinia nubilalis (European corn borer) larvae assessed as amount of weight gain by the insect at 0.60% of diet dry weight after 5 days relative to control
Ostrinia nubilalis [30] = assay: Antifeedant activity against Ostrinia nubilalis (European corn borer) larvae assessed as feeding rate at 0.20% of diet dry weight after 5 days relative to control
Ostrinia nubilalis [31] = assay: Effect on growth of male Ostrinia nubilalis (European corn borer) larvae assessed as pupal duration at 1% of diet dry weight after 6 days relative to control
Ostrinia nubilalis [32] = assay: Effect on growth of female Ostrinia nubilalis (European corn borer) larvae assessed as pupal duration at 0.10% of diet dry weight after 6 days relative to control
Ostrinia nubilalis [33] = assay: Antifeedant activity against Ostrinia nubilalis (European corn borer) larvae assessed as amount excreted at 0.10% of diet dry weight after 5 days relative to control
Ostrinia nubilalis [34] = assay: Antifeedant activity against Ostrinia nubilalis (European corn borer) larvae assessed as amount of weight gain by the insect at 0.80% of diet dry weight after 5 days relative to control
Ostrinia nubilalis [35] = assay: Antifeedant activity against Ostrinia nubilalis (European corn borer) larvae assessed as growth rate at 0.60% of diet dry weight after 5 days relative to control
Ostrinia nubilalis [36] = assay: Effect on growth of male Ostrinia nubilalis (European corn borer) larvae assessed as pupal weight at 1% of diet dry weight after 6 days relative to control
Ostrinia nubilalis [37] = assay: Antifeedant activity against Ostrinia nubilalis (European corn borer) larvae assessed as excretion rate at 0.80% of diet dry weight after 5 days relative to control
Ostrinia nubilalis [38] = assay: Antifeedant activity against Ostrinia nubilalis (European corn borer) larvae assessed as amount of weight gain by the insect at 0.40% of diet dry weight after 5 days relative to control
Ostrinia nubilalis [39] = assay: Effect on growth of female Ostrinia nubilalis (European corn borer) larvae assessed as pupal weight at 1% of diet dry weight after 6 days relative to control
Ostrinia nubilalis [40] = assay: Effect on growth of male Ostrinia nubilalis (European corn borer) larvae assessed as adult emergence at 1% of diet dry weight after 6 days relative to control
Ostrinia nubilalis [41] = assay: Antifeedant activity against Ostrinia nubilalis (European corn borer) larvae assessed as amount excreted at 0.60% of diet dry weight after 5 days relative to control
Ostrinia nubilalis [42] = assay: Effect on growth of male Ostrinia nubilalis (European corn borer) larvae assessed as adult emergence at 0.10% of diet dry weight after 6 days relative to control
Ostrinia nubilalis [43] = assay: Effect on growth of male Ostrinia nubilalis (European corn borer) larvae assessed as pupal duration at 0.01% of diet dry weight after 6 days relative to control
Ostrinia nubilalis [44] = assay: Antifeedant activity against Ostrinia nubilalis (European corn borer) larvae assessed as amount of food consumed at 0.20% of diet dry weight after 5 days relative to control
Ostrinia nubilalis [45] = assay: Effect on growth of male Ostrinia nubilalis (European corn borer) larvae assessed as adult emergence at 0.01% of diet dry weight after 6 days relative to control
Ostrinia nubilalis [46] = assay: Antifeedant activity against Ostrinia nubilalis (European corn borer) larvae assessed as amount excreted at 0.80% of diet dry weight after 5 days relative to control
Ostrinia nubilalis [47] = assay: Effect on growth of female Ostrinia nubilalis (European corn borer) larvae assessed as pupal weight at 0.10% of diet dry weight after 6 days relative to control
Ostrinia nubilalis [48] = assay: Effect on growth of female Ostrinia nubilalis (European corn borer) larvae assessed as pupal duration at 0.001% of diet dry weight after 6 days relative to control
Ostrinia nubilalis [49] = assay: Antifeedant activity against Ostrinia nubilalis (European corn borer) larvae assessed as feeding rate at 0.80% of diet dry weight after 5 days relative to control
Ostrinia nubilalis [50] = assay: Antifeedant activity against Ostrinia nubilalis (European corn borer) larvae assessed as excretion rate at 0.20% of diet dry weight after 5 days relative to control
Ostrinia nubilalis [51] = assay: Effect on growth of male Ostrinia nubilalis (European corn borer) larvae assessed as larval duration at 0.001% of diet dry weight after 6 days relative to control
Ostrinia nubilalis [52] = assay: Effect on growth of male Ostrinia nubilalis (European corn borer) larvae assessed as pupal weight at 0.001% of diet dry weight after 6 days relative to control
Ostrinia nubilalis [53] = assay: Effect on growth of female Ostrinia nubilalis (European corn borer) larvae assessed as larval duration at 0.01% of diet dry weight after 6 days relative to control
Ostrinia nubilalis [54] = assay: Effect on growth of male Ostrinia nubilalis (European corn borer) larvae assessed as larval duration at 0.10% of diet dry weight after 6 days relative to control
Ostrinia nubilalis [55] = assay: Effect on growth of female Ostrinia nubilalis (European corn borer) larvae assessed as adult emergence at 0.001% of diet dry weight after 6 days relative to control
Ostrinia nubilalis [56] = assay: Antifeedant activity against Ostrinia nubilalis (European corn borer) larvae assessed as amount excreted at 0.40% of diet dry weight after 5 days relative to control
Ostrinia nubilalis [57] = assay: Effect on growth of female Ostrinia nubilalis (European corn borer) larvae assessed as adult emergence at 0.01% of diet dry weight after 6 days relative to control
Ostrinia nubilalis [58] = assay: Effect on growth of female Ostrinia nubilalis (European corn borer) larvae assessed as pupal duration at 0.01% of diet dry weight after 6 days relative to control
Ostrinia nubilalis [59] = assay: Antifeedant activity against Ostrinia nubilalis (European corn borer) larvae assessed as feeding rate at 0.40% of diet dry weight after 5 days relative to control
Ostrinia nubilalis [60] = assay: Antifeedant activity against Ostrinia nubilalis (European corn borer) larvae assessed as feeding rate at 0.10% of diet dry weight after 5 days relative to control
Ostrinia nubilalis [61] = assay: Effect on growth of male Ostrinia nubilalis (European corn borer) larvae assessed as pupal weight at 0.01% of diet dry weight after 6 days relative to control
Ostrinia nubilalis [62] = assay: Antifeedant activity against Ostrinia nubilalis (European corn borer) larvae assessed as growth rate at 0.20% of diet dry weight after 5 days relative to control
Ostrinia nubilalis [63] = assay: Effect on growth of male Ostrinia nubilalis (European corn borer) larvae assessed as larval duration at 1% of diet dry weight after 6 days relative to control

SMILES: CC(C)=CCc1c2c(c3occ(-c4ccc(O)cc4)c(=O)c3c1O)C=CC(C)(C)O2 [OSAJIN]
- Activity (Ostrinia nubilalis [1]): -3%
- mortality (Ostrinia nubilalis [2]): <=7%
- Activity (Ostrinia nubilalis [3]): 75 mg
- Activity (Ostrinia nubilalis [4]): 71%
- Activity (Ostrinia nubilalis [5]): 36%
- Activity (Ostrinia nubilalis [6]): 103 mg
- Activity (Ostrinia nubilalis [7]): 3%
- Activity (Ostrinia nubilalis [8]): 85%
- Activity (Ostrinia nubilalis [9]): 104 mg
- Activity (Ostrinia nubilalis [10]): 36%
- Activity (Ostrinia nubilalis [11]): 2.6%
- Time (Ostrinia nubilalis [12]): 7.6 days
- Time (Ostrinia nubilalis [13]): 11.4 days
- Activity (Ostrinia nubilalis [14]): 6.3%
- Activity (Ostrinia nubilalis [15]): 50%
- Activity (Ostrinia nubilalis [16]): 30.5%
- Activity (Ostrinia nubilalis [17]): -1%
- Activity (Ostrinia nubilalis [18]): -1%
- Time (Ostrinia nubilalis [19]): 11.7 days
- Activity (Ostrinia nubilalis [20]): 27.7%
- Time (Ostrinia nubilalis [21]): 7.2 days
- Activity (Ostrinia nubilalis [22]): -2%
- Time (Ostrinia nubilalis [23]): 6.4 days
- Time (Ostrinia nubilalis [24]): 12.4 days
- Activity (Ostrinia nubilalis [25]): 1.9%
- Time (Ostrinia nubilalis [26]): 11.8 days
- Activity (Ostrinia nubilalis [27]): 4.7%
- Activity (Ostrinia nubilalis [28]): -8%
- Activity (Ostrinia nubilalis [29]): 7%
- Activity (Ostrinia nubilalis [30]): -8%
- Time (Ostrinia nubilalis [31]): 7.3 days
- Time (Ostrinia nubilalis [32]): 7.1 days
- Activity (Ostrinia nubilalis [33]): -1.4%
- Activity (Ostrinia nubilalis [34]): 10.5%
- Activity (Ostrinia nubilalis [35]): 1.7%
- Activity (Ostrinia nubilalis [36]): 71 mg
- Activity (Ostrinia nubilalis [37]): 4%
- Activity (Ostrinia nubilalis [38]): 17%
- Activity (Ostrinia nubilalis [39]): 109 mg
- Activity (Ostrinia nubilalis [40]): 43%
- Activity (Ostrinia nubilalis [41]): 10.8%
- Activity (Ostrinia nubilalis [42]): 71%
- Time (Ostrinia nubilalis [43]): 6.8 days
- Activity (Ostrinia nubilalis [44]): -12%
- Activity (Ostrinia nubilalis [45]): 50%
- Activity (Ostrinia nubilalis [46]): 1.9%
- Activity (Ostrinia nubilalis [47]): 102 mg
- Time (Ostrinia nubilalis [48]): 6.5 days
- Activity (Ostrinia nubilalis [49]): 27.5%
- Activity (Ostrinia nubilalis [50]): 6%
- Time (Ostrinia nubilalis [51]): 11.4 days
- Activity (Ostrinia nubilalis [52]): 76 mg
- Time (Ostrinia nubilalis [53]): 12.6 days
- Time (Ostrinia nubilalis [54]): 11.4 days
- Activity (Ostrinia nubilalis [55]): 54%
- Activity (Ostrinia nubilalis [56]): 17.6%
- Activity (Ostrinia nubilalis [57]): 44%
- Time (Ostrinia nubilalis [58]): 6.3 days
- Activity (Ostrinia nubilalis [59]): 23%
- Activity (Ostrinia nubilalis [60]): -7%
- Activity (Ostrinia nubilalis [61]): 75 mg
- Activity (Ostrinia nubilalis [62]): -1%
- Time (Ostrinia nubilalis [63]): 11.3 days
